Laboratory results published in publication PMC5740388, “In Vitro Antibacterial Properties of Cefiderocol, a Novel Siderophore Cephalosporin, against Gram-Negative Bacteria” (Antimicrobial Agents and Chemotherapy, 2017).
pIC50: −log10 of the molar value. ≈ marks a conversion by molar mass, not a printed value. Where two headings read alike, the source gives them in different places.

Assays:
[1] = target: T1, PBP3 of P. aeruginosa ATCC 27853 (Pseudomonas aeruginosa, UniProt G3XD46); experiment: competition with […]benzylpenicillin for PBPs; format: binding; conditions: covalent
T1 construct: gene ftsI

[2] = system: T2, PBP1a and PBP1b of A. baumannii ATCC 17978 (not separated); experiment: competition with Bocillin FL for PBPs; format: binding, Acinetobacter baumannii; conditions: covalent; joint value for PBP1a and PBP1b
T2 construct: gene ponA; one joint IC50 for PBP1a and PBP1b
Text: competition with Bocillin FL for PBPs on PBP1a and PBP1b of A. baumannii ATCC 17978 (not separated)

[3] = target: T3, PBP4 of E. coli NIHJ JC-2 (Escherichia coli, UniProt P24228); experiment: competition with […]benzylpenicillin for PBPs; format: binding; conditions: read-out: % inhibition at 4 μg/ml
T3 construct: gene dacB

[4] = target: T4, PBP1b of P. aeruginosa ATCC 27853 (Pseudomonas aeruginosa, UniProt G3XD31); experiment: competition with […]benzylpenicillin for PBPs; format: binding; conditions: covalent; read-out: IC50 (μg/ml) / Ceftazidime
T4 construct: gene mrcB
T4 sequence (G3XD31 1-774): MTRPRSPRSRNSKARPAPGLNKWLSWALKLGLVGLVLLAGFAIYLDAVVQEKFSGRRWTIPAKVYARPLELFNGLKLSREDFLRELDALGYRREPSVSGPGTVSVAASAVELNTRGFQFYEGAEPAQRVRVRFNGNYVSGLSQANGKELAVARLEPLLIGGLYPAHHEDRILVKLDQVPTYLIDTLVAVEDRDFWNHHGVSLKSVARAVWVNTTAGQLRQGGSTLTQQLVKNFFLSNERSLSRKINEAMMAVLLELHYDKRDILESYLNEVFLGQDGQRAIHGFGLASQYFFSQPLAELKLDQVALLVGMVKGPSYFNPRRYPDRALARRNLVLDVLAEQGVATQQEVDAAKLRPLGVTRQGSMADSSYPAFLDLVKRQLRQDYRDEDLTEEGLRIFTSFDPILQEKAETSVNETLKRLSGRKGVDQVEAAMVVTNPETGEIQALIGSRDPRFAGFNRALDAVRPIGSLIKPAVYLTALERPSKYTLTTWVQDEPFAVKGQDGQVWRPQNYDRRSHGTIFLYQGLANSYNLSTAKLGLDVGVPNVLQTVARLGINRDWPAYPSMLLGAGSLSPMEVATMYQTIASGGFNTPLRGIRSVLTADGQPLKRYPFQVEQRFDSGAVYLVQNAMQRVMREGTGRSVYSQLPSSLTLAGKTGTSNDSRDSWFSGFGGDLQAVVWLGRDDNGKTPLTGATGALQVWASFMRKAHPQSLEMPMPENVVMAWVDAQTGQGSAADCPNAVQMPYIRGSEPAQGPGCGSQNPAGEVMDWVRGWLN

[5] = target: T5, PBP3 of K. pneumoniae SR22291 (Klebsiella pneumoniae, UniProt A0A0H3GN85); experiment: competition with […]benzylpenicillin for PBPs; format: binding; conditions: covalent
T5 construct: gene ftsI
T5 sequence (A0A0H3GN85 1-588): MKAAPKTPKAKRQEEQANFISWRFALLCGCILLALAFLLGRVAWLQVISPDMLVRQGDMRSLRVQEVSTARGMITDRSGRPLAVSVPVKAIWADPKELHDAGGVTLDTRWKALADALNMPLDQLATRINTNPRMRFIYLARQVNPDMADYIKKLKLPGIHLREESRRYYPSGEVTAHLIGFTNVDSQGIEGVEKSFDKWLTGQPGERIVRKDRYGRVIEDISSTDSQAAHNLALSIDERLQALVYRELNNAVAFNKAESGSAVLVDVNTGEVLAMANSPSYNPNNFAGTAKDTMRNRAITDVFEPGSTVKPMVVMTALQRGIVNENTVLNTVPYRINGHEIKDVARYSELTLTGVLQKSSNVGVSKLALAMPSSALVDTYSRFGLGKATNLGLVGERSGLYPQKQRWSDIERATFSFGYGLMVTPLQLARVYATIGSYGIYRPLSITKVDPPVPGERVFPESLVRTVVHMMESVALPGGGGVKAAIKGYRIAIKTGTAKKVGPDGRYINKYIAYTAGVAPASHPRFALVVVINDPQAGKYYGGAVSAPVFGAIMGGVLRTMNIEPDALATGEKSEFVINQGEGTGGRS

[6] = target: T3, PBP4 of E. coli NIHJ JC-2; experiment: competition with […]benzylpenicillin for PBPs; format: binding; conditions: covalent; read-out: IC50 (μg/ml) / E. coli NIHJ JC-2 / Ceftazidime

Structure (SMILES)	IC50 ([1]; read-out: IC50 (μg/ml) / / Cefiderocol (converted))	IC50 (μg/ml) / A. baumannii ATCC 17978 ^a / Cefiderocol [2]	inhibition at 4 µg/mL [3]	pIC50 [4]	IC50 ([5]; read-out: IC50 (μg/ml) / K. pneumoniae SR22291 / Cefiderocol (converted))	pIC50 [6]	IC50 ([1]; read-out: IC50 (μg/ml) / P. aeruginosa ATCC 27853 / Ceftazidime (converted))	IC50 (μg/ml) / A. baumannii ATCC 17978 ^a / Ceftazidime [2]	IC50 ([5]; read-out: IC50 (μg/ml) / K. pneumoniae SR22291 / Ceftazidime (converted))
CC(C)(O/N=C(\C(=O)N[C@@H]1C(=O)N2C(C(=O)[O-])=C(C[N+]3(CCNC(=O)c4ccc(O)c(O)c4Cl)CCCC3)CS[C@H]12)c1csc(N)n1)C(=O)O [cefiderocol]	79.8 nM	1.05 µg/mL (≈ 1.4 µM)	63%	< 5.27	82.4 nM	–	–	–	–
CC(C)(O/N=C(\C(=O)N[C@@H]1C(=O)N2C(C(=O)[O-])=C(C[n+]3ccccc3)CS[C@H]12)c1csc(N)n1)C(=O)O [ceftazidime]	–	–	–	< 5.14	–	< 5.74	165 nM	0.91 µg/mL (≈ 1.66 µM)	402 nM
